{"source": "patent US6362207B1", "about": "“Methods of treating viral infections with benzimidazoles” (priority 1995, dated 2002)", "key": {"[1]": {"tested_on": "rhinovirus", "experiment": "In vitro rhinovirus model", "format": "cell-based"}, "[2]": {"tested_on": "HIV-1 in U1 cells (promonocytic, from U937)", "experiment": "Additional chronic HIV studies, monocytes", "format": "cell-based", "details": "chronic HIV model", "experimental": "Chronic HIV-1 infected cells U1 were derived from an acute HIV-1 infection of the promonocytic cell line, U937. The chronic HIV-1 infected cells, ACH-2 were derived from an acute HIV-1 infection of the T cell line, A3.01.\nThese cells were cultured in medium and the phorbol ester, PMA. PMA causes the cells (both U1 and ACH-2) to be activated and not divide but it also causes the U-1 cells to differentiate. […] Cell viability was measured when these cell lines were treated with the test compound.\nBoth cell lines constituitively produce a small amount of HIV-1. ACH-2 cell lines tend to produce more HIV-1 than U1 cells as shown by p24 ELISA. When either cell line is cultured in the presence of PMA there is an increase in the quantity of HIV-1 produced as measured by the p24 antigen ELISA.\nIn addition, the number of […] positive HIV mRNA expressing cells per microscopic field is measured. Comparisons can be made from these numbers since the same number of cells were adhered to the glass slides for each drug concentration 10×10^6 cells/ml).\nThese cells were treated with test samples. […] The positive control was interferon which suppressed HIV monocytes replication by 80%."}, "[3]": {"tested_on": "HIV", "experiment": "microbe, parasite or virus in culture", "format": "cell-based", "details": "1 μg/ml"}, "[4]": {"tested_on": "HT29 colon tumor cells", "experiment": "MTT cell viability test, colon tumor cells", "format": "cell-based, human", "details": "MTT, 5 day incubation"}, "[5]": {"tested_on": "MX1 breast cells", "experiment": "MTT cell viability test, breast tumor cells", "format": "cell-based, human", "details": "5 day incubation"}, "[6]": {"tested_on": "A549 lung tumor cells", "experiment": "MTT cell viability test, lung tumor cells", "format": "cell-based, human", "details": "MTT, 5 day incubation"}, "[7]": {"tested_on": "MX1 breast cancer tumors implanted subcutaneously", "experiment": "Tumor growth reduction in mice models (Table 5), breast", "format": "in vivo", "details": "MXI-breast, positive control 125 mg/kg"}, "[8]": {"format": "in vivo", "text": "Additional in vivo cancer studies are presented in a tabular form below. The data is presented in the following format—dose regimen in parenthesis, dosage in mg/kg: tumor growth suppression (tg supp.), toxic deaths/number of test subjects (deaths), % weight change (wt)."}, "[9]": {"tested_on": "B-16 mouse melanoma", "experimental": "The data in Tables 1, 2 and 3 are reported in T/C which is interpreted using the following scale:\nlong term survivors for P388 is >30 days, for B16 it is >60 days. The NCI Measure of Success is T/C=125.\nThis study was performed in black mice injected i.p. with B-16 mouse melanoma which many researchers believe is the most predictive model for efficacy in humans. […] Death is the end point in this model."}, "[10]": {"tested_on": "P388", "experiment": "P-388 model for leukemia, T/C", "format": "in vivo, mice", "text": "In the P-388 model for leukemia there was a dose responsive effect and the results were good.\nThe NCI Measure of Success is T/C=125."}, "[11]": {"tested_on": "lung", "format": "in vivo", "details": "A549-lung, positive control 125 mg/kg"}, "[12]": {"tested_on": "herpes", "experiment": "In vivo herpes screening test", "parameters": "species or system mice", "details": "75 mg/kg", "experimental": "The positive control was acyclovir at 75 mg/kg dose; 60% of the mice survived with a mean death date of 17.2 days."}, "[13]": {"tested_on": "influenza", "experiment": "In vivo model for influenza", "parameters": "species or system mice", "details": "75 mg/kg; for 21 days", "experimental": "The positive control was amantadine (75 mg/kg) with 100% of the mice surviving for 21 days. 2-(Methoxycarbonylamino)benzimidazole was not active in the same test."}, "[14]": {"tested_on": "colon", "experiment": "Tumor growth reduction in mice models (Tables 5 and 6), colon", "format": "in vivo", "details": "HT29-colon, positive control 4 mg/kg"}, "[15]": {"details": "given for perspective; cited from earlier work"}, "[16]": {"details": "A549 (lung), positive control 125 mg/kg"}, "[17]": {"details": "DU-145, positive control 300 mg/kg, 1 dose"}, "[18]": {"details": "HT29 (colon), positive control 300 mg/kg, 1 dose"}, "[19]": {"details": "MCF-7L (breast), positive control 300 mg/kg, 1 dose"}, "[20]": {"details": "MX1 xenograft, positive control 300 mg/kg, 1 dose"}, "[21]": {"details": "positive control, 300 mg/kg on dose"}, "[22]": {"details": "SK-MES, positive control 2 mg/kg, 5 doses"}}, "note": "Like-named read-outs stand apart in the source and are kept apart here."}
{"smiles": "COc1ccc2nc(C(O)C(O)c3nc4ccc(OC)cc4[nH]3)[nH]c2c1", "note": "(stereo not shown) [A36683, reference compound]", "values": [{"measurement": "therapeutic index (TI), ratio of toxic dose to efficacious dose", "setting": "[1]", "result": "1000-3200"}]}
{"smiles": "Cc1cn([C@H]2C[C@H](N=[N+]=[N-])[C@@H](CO)O2)c(=O)[nH]c1=O", "note": "[AZT, reference compound]", "values": [{"measurement": "activity in this model", "setting": "[2]", "result": "no activity"}, {"measurement": "inhibition of viral replication", "setting": "[3]", "result": 98, "unit": "%"}]}
{"smiles": "COc1cccc2c1C(=O)c1c(O)c3c(c(O)c1C2=O)C[C@@](O)(C(=O)CO)C[C@@H]3O[C@H]1C[C@H](N)[C@H](O)[C@H](C)O1", "note": "[Adriamycin, reference compound]", "values": [{"measurement": "EC-50 Result", "setting": "[4]; HT29, first column", "result": 0.03, "unit": "ppm"}, {"measurement": "EC-50 Result", "setting": "[4]; HT29, second column", "result": 0.006, "unit": "ppm"}, {"measurement": "EC-50 Result", "setting": "[5]; MX1, first column", "result": 0.02, "unit": "ppm"}, {"measurement": "EC-50 Result", "setting": "[5]; MX1, second column", "result": 0.001, "unit": "ppm"}, {"measurement": "EC-50 Result", "setting": "[6]; A549, first column", "result": 0.03, "unit": "ppm"}, {"measurement": "EC-50 Result", "setting": "[6]; A549, second column", "result": 0.009, "unit": "ppm"}]}
{"smiles": "O=P1(N(CCCl)CCCl)NCCCO1", "note": "(stereo not shown) [Cytoxan, reference compound]", "values": [{"measurement": "Tumor Growth Decrease", "setting": "[7]", "result": "regression"}, {"measurement": "% weight change (wt)", "setting": "[8]; [16]", "result": "−1", "unit": "%"}, {"measurement": "toxic deaths/number of test subjects (deaths)", "setting": "[8]; [16]", "result": "0/10"}, {"measurement": "tumor growth suppression (tg supp.)", "setting": "[8]; [16]", "result": 69, "unit": "%"}, {"measurement": "% weight change (wt)", "setting": "[8]; [17]", "result": "+6%"}, {"measurement": "toxic deaths/number of test subjects (deaths)", "setting": "[8]; [17]", "result": "0/10"}, {"measurement": "tumor growth suppression (tg supp.)", "setting": "[8]; [17]", "result": 0, "unit": "%"}, {"measurement": "% weight change (wt)", "setting": "[8]; [18]", "result": "+10%"}, {"measurement": "toxic deaths/number of test subjects (deaths)", "setting": "[8]; [18]", "result": "0/10"}, {"measurement": "tumor growth suppression (tg supp.)", "setting": "[8]; [18]", "result": 45, "unit": "%"}, {"measurement": "% weight change (wt)", "setting": "[8]; [19]", "result": "−15", "unit": "%"}, {"measurement": "toxic deaths/number of test subjects (deaths)", "setting": "[8]; [19]", "result": "3/10"}, {"measurement": "tumor growth suppression (tg supp.)", "setting": "[8]; [19]", "result": 100, "unit": "%"}, {"measurement": "% weight change (wt)", "setting": "[8]; [20]", "result": "−7", "unit": "%"}, {"measurement": "toxic deaths/number of test subjects (deaths)", "setting": "[8]; [20]", "result": "0/10"}, {"measurement": "tumor growth suppression (tg supp.)", "setting": "[8]; [20]", "result": "complete"}, {"measurement": "T/C", "setting": "[9]; [21]", "result": 191}, {"measurement": "weight change", "setting": "[9]; [21]", "result": "−8.43", "unit": "%"}, {"measurement": "increased life span, Positive Control", "setting": "[10]; P388-luekemia, positive control (125)", "result": "curative"}, {"measurement": "T/C", "setting": "[10]; [21]", "result": 191}, {"measurement": "weight change", "setting": "[10]; [21]", "result": "−8.43", "unit": "%"}, {"measurement": "Tumor Growth Decrease", "setting": "[11]", "result": 69, "unit": "%"}]}
{"smiles": "CCC1=C[C@@H]2CN(C1)Cc1c([nH]c3ccccc13)[C@@](C(=O)OC)(c1cc3c(cc1OC)N(C)[C@H]1[C@@](O)(C(=O)OC)[C@H](OC(C)=O)[C@]4(CC)C=CCN5CC[C@]31[C@@H]54)C2", "note": "[Navelbine]", "values": [{"measurement": "% weight change (wt)", "setting": "[8]; [22]", "result": "−5", "unit": "%"}, {"measurement": "toxic deaths/number of test subjects (deaths)", "setting": "[8]; [22]", "result": "1/10"}, {"measurement": "tumor growth suppression (tg supp.)", "setting": "[8]; [22]", "result": 26, "unit": "%"}, {"measurement": "increased life span, Positive Control", "setting": "[9]; B16 melanoma, positive control (2)", "result": 265, "unit": "%"}]}
{"smiles": "Nc1nc2c(ncn2COCCO)c(=O)[nH]1", "note": "[acyclovir, reference compound]", "values": [{"measurement": "mean death date", "setting": "[12]", "result": 17.2, "unit": "days"}, {"measurement": "mice survived", "setting": "[12]", "result": 60, "unit": "%"}]}
{"smiles": "NC12CC3CC(CC(C3)C1)C2", "note": "[amantadine, reference compound]", "values": [{"measurement": "mice surviving", "setting": "[13]", "result": 100, "unit": "%"}]}
{"smiles": "CCCCNC(=O)n1c(NC(=O)OC)nc2ccccc21", "note": "[benomyl]", "values": [{"measurement": "EC-50 Result", "setting": "[4]; HT29, first column", "result": 0.742, "unit": "ppm"}, {"measurement": "EC-50 Result", "setting": "[4]; HT29, second column", "result": 0.747, "unit": "ppm"}, {"measurement": "EC-50 Result", "setting": "[5]; MX1, first column", "result": 1.42, "unit": "ppm"}, {"measurement": "EC-50 Result", "setting": "[5]; MX1, second column", "result": 2.42, "unit": "ppm"}, {"measurement": "EC-50 Result", "setting": "[6]; A549, first column", "result": 0.980, "unit": "ppm"}, {"measurement": "EC-50 Result", "setting": "[6]; A549, second column", "result": 1.02, "unit": "ppm"}]}
{"smiles": "N.N.[Cl][Pt][Cl]", "note": "[cis-plat]", "values": [{"measurement": "Tumor Growth Decrease", "setting": "[14]", "result": 59, "unit": "%"}]}
{"smiles": "[Cl-].[Na+]", "note": "[table salt]", "values": [{"measurement": "LD50", "setting": "[15]", "result": 3750, "unit": "mg/kg"}]}
